What was measured:
Format in all cases: cell-based, human
[1] = tested on: NK1R (neurokinin 1 receptor) gene; assay: Gene expression assay by real-time PCR: NK1R gene in melanocytes; details: melanocytes (KaMC), 2 nM substance P, 5 days; relative to GAPDH, control group = 1
Procedure: (§1) Melanocytes (KaMC; KCTC 12015BP) deposited in the Korean Collection for Type Culture (KCTC) were cultured in M-254 medium (Gibco BRL, N.Y., USA) supplemented with Human Melanocyte Growth Supplement (HMGS; Gibco BRL, N.Y., USA) on a 6-well plate, while changing the medium every other day, in a 5% CO2 incubator at 37° C. until the cells occupied 95% of the plate area (95% confluence). […] The cells not treated with substance P or the masterwort (Peucedanum ostruthium) extract of Example 1 were used as a control group. After removing the medium form the melanocytes cultured on the 6-well plate, the cells were washed 2 times with cold phosphate-buffered saline (PBS) and the remaining water was completely removed. […] 1 μL of the RNA was quantified using Synergy II (Biotek, USA). […] After adding 10 μL of Taqman Gene Expression Master Mix (Life Technologies, USA) and 1 μL of Assays-on-DemandTM (Life Technologies, USA) of NK1 R (ACCESSION: NM_001058) and EDN1 (ACCESSION: NM_001168319) genes to 9 μL of the diluted cDNA, the expression of the genes was analyzed by relative quantification using 7500 Fast Real-Time PCR (Life Technologies, USA) with glyceraldehyde 3-phosphate dehydrogenase (GAPDH, ACCESSION: NM001256799) as a control gene. […]

EDN1 (endothelin 1) gene = assay: Gene expression assay by real-time PCR: EDN1 gene in melanocytes; details: melanocytes (KaMC), 2 nM substance P, 5 days; relative to GAPDH, control group = 1
Procedure: as §1

endothelin 1 (EDN1) = assay: Endothelin 1 ELISA assay of culture medium of melanocytes; details: melanocytes (KaMC) medium, 2 nM substance P; absorbance/total protein, control group = 100%
Procedure: When the density of the melanocytes on the 6-well plate reached about 80% (˜80% confluence), they were incubated for a total of 5 days with 2 nM of stress-inducing substance P (Bachem Fechemikalien, Bubendorf, Switzerland) or the masterwort (Peucedanum ostruthium) extract of Example 1 of different concentrations (0, 0.1, 1, 2 and 5 ppm). The cells not treated with substance P or the masterwort (Peucedanum ostruthium) extract of Example 1 were used as a control group.
The culture medium of the cells treated with the extract in (2) of Test Example 1 were recovered and the amount of endothelin 1 (EDN1) comprised in the medium was measured at 450 nm using the human total endothelin ELISA kit (MyBioSource, USA).
Endothelin content (%)=(Absorbance/Total protein)×100 Equation 1

In the case of `CSCC[C@H](NC(=O)[C@H](CC(C)C)NC(=O)CNC(=O)[C@H](Cc1ccccc1)NC(=O)[C@H](Cc1ccccc1)NC(=O)[C@H](CCC(N)=O)NC(=O)[C@H](CCC(N)=O)NC(=O)[C@@H]1CCCN1C(=O)[C@H](CCCCN)NC(=O)[C@@H]1CCCN1C(=O)[C@@H](N)CCCN=C(N)N)C(N)=O` [substance P], the “expression of the NK1R gene” value [1] is reported as 4.2, the “expression of the EDN1 gene” value (EDN1 (endothelin 1) gene) is reported as 3.6 and the “content of endothelin 1” value (endothelin 1 (EDN1)) is reported as 124%.

— patent publication US20170182104A1, “COMPOSITION CONTAINING MASTERWORT EXTRACT” (AMOREPACIFIC CORPORATION, priority 2014, published 2017)
